One test deals with Tetranychus urticae. Put plainly: Laboratory test of mite control (Unesp, Jaboticabal). The conditions noted are these: dose 30 g-mL/100 L, lab conditions; for Mite control (%) 1 DFA: 1 day following application; for Mite control (%) 2 DFA: 2 days following application; for Mite control (%) 3 DFA: 3 days following application; for Mite control (%) 4 DFA: 4 days following application; for Mite control (%) 7 DFA: 7 days following application. The format is in vivo. From the text:
Application of miticide propargite: application to control mites in lab conditions, performed by Unesp in Jaboticabal, SP. Quantitative (control) results are described in table 3. Assessments were made of the plant treated with miticide propargite against the witness plant (untreated).
Application of miticide abamectin: application to control mites in lab conditions, performed by Unesp in Jaboticabal, SP. Quantitative (control) results are described in Chart 4. Assessments were made of the plant treated with miticide abamectin against the witness plant (untreated).
Example 5: Laboratory Test Performed by Unesp in Jaboticabal, SP to Measure Mite Control, Specifically Control of Tetranychus Urticae with 4 Repetitions and 4 Treatments
The first (treatment 1) is a sample of the plant with no treatment (Witness). The second treatment is a sample treated with Folcysteine alone (treatment 2). The third treatment is a plant sample treated only with the agrotoxic of interest, miticide AI4 (based on propargite), identified as treatment 3, and the fourth treatment used a folcysteine-based biostimulant and an agrotoxic of interest, miticide AI4 (propargite-based), identified as treatment 4, applied under laboratory conditions. See the results in the following table:
Example 6: Laboratory Test Performed by Unesp in Jaboticabal, SP to Measure Mite Control, Specifically Control of Tetranychus Urticae with 4 Repetitions and 4 Treatments
The first (treatment 1) is a sample of the plant with no treatment (Witness). The second is a sample treated with Folcysteine alone (treatment 2). The third treatment is a plant sample treated only with the agrotoxic of interest, miticide AI5, and the fourth treatment uses a blend of folcysteine-based biostimulant and an agrotoxic of interest, miticide AI5 (abamectin-based), identified as treatment 4, applied under laboratory conditions.

A further test relates to corn. The format is in vivo. To be noted: dose 1.50 kg-l/ha.

Regarding `C#CCOS(=O)OC1CCCCC1Oc1ccc(C(C)(C)C)cc1` (centres unmarked) [Propargite, propargite], in the test with Tetranychus urticae, the “Mite control (%) 1 DFA” value came to 59%, the “Mite control (%) 2 DFA” value worked out at 63%, the “Mite control (%) 3 DFA” value is 70% and the “Mite control (%) 4 DFA” value stood at 77%. In addition, the “Mite control (%) 7 DFA” value in the test with Tetranychus urticae is 98%.

Regarding `CP(=O)(O)CCC(N)C(=O)O.N` (centres unmarked) [ammonium glufosinate], in the test on corn (herbicide alone = 100), the “Productivity Index” value is on record as 100 and the “Weight of 1,000 grains Index” value is 100. For the same compound, in the test with corn (spraying volume 300 l/ha), the Productivity came out at 7.142 b kg/ha and the “Weight of 1,000 grains” value is reported as 25.89 a g.

For abamectin, in the test on Tetranychus urticae, the “Mite control (%) 1 DFA” value worked out at 20%, the “Mite control (%) 2 DFA” value turned out to be 20%, the “Mite control (%) 3 DFA” value is reported as 20% and the “Mite control (%) 4 DFA” value is 45%. Also, the “Mite control (%) 7 DFA” value with Tetranychus urticae was determined as 62%.

These data come from patent US12185719B2, “Mixture of a folcysteine-based biostimulant and an agrotoxic substance of interest resulting in a quantitatively, qualitatively and time-related result-potentiating action as observed in an agricultural crop of a plant of interest” (priority 2017, dated 2025).
